# Laboratory results taken from article PMC10172623 (Computational and Structural Biotechnology Journal, 2023).
# Columns and labels:
# [1] = biological target: TylF (Streptomyces fradiae, UniProt Q9S4D5, Y139F); test: biochemical
# [2] = biological target: TylF (Streptomyces fradiae, UniProt Q9S4D5); test: biochemical
# Chain of TylF (Streptomyces fradiae, UniProt Q9S4D5) (Q9S4D5 whole entry): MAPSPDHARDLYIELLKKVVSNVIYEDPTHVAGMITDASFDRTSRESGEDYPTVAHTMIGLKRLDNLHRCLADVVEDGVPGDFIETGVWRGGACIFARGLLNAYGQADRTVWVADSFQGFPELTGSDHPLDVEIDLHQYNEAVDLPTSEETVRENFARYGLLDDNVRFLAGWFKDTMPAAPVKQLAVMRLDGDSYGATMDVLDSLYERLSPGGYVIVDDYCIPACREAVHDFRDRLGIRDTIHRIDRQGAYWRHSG
# Chain of TylF (Streptomyces fradiae, UniProt Q9S4D5, Y139F) (Q9S4D5 whole entry Y139F): as the sequence (Q9S4D5 whole entry) above, with Y139F counted along it
smiles,measurement,setting,value
C[S+](CC[C@H](N)C(=O)O)C[C@H]1O[C@@H](n2cnc3c(N)ncnc32)[C@H](O)[C@@H]1O (some centres unmarked) [SAM],Kd,[1],265 ± 24.3 µM
same,Kd,[2],162 ± 91.6 µM
